From US20230000816A1, “SODIUM-GLUCOSE LINKED TRANSPORTER INHIBITORS FOR THE MANAGEMENT OF CHRONIC KIDNEY DISEASE, HYPERTENSION, AND HEART FAILURE IN COMPANION ANIMALS” (INCREVET, INC., priority 2019, published 2023)
Values after ≈ are worked out from the molar mass of the structure shown.

Tests used:
[1] = test system: feline SGLT2; assay: Inhibition of feline SGLT2
[2] = biological target: T1, human SGLT2 (Homo sapiens, UniProt P31639); assay: Inhibition of human SGLT2
T1 sequence (P31639 1-672): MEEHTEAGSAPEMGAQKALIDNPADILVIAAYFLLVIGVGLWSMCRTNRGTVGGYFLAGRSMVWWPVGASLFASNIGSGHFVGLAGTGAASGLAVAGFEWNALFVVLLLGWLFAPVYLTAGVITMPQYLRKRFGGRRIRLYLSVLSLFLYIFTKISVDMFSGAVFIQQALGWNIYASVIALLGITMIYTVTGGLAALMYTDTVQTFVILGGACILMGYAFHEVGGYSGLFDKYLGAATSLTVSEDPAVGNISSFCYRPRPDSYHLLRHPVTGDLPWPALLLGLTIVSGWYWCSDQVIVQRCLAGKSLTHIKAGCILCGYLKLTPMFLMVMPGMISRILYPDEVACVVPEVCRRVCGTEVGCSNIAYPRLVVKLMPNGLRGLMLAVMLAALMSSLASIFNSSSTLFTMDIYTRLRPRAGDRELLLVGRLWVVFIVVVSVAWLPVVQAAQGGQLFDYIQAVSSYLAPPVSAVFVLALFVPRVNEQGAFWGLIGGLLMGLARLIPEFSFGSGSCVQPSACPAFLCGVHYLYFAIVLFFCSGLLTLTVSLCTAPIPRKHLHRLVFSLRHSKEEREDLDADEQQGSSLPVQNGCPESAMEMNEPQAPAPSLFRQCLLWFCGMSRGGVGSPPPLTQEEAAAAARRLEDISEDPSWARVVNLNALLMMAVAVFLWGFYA

[3] = Solubility; assay type: physicochemical
[4] = test system: purpose-bred beagles; assay: 24 h urine collection (glucose excretion, volume, electrolytes) in dogs; assay type: in vivo, dog; details: for 24 h urine Cl^− / 24 h urine K^+ / 24 h urine Na^+ / 24 h urine Volume: mean ± SD, n=4
Description: (§1) Groups of four purpose-bred beagles per cohort were administered ascending doses of bexagliflozin in the form of a proline co-crystal consisting of two moles of L-proline for every mole of bexagliflozin. The co-crystal was dissolved in 10% PEG400 and administered by oral gavage to dogs that had been fasted overnight. Control dogs were administered 10% PEG400. One hour after dosing, glucose solution (2 g kg^−1, 5 ml kg^−1) was administered by gavage. Serum glucose concentrations were quantitated by an automated clinical chemistry analyzer for samples collected before dosing, before glucose challenge, and 15, 30, 60, and 120 min after glucose challenge. Urine was collected from 0 to 4 h, 4 to 8 h and 8 to 24 h after dosing for electrolyte analyses (Na^+, K^+, Cl^− and Ca^2+) and glucose measurement. Whole blood samples of approximately 500 μL were collected from the cephalic vein 0, 0.25, 0.5, 1, 2, 4, 8, 12 and 24 h after dosing for pharmacokinetic analysis.
Urine output increased in the treatment group, consistent with an osmotic diuresis or with a role for the inhibited transporters in water reuptake in the proximal tubule.

[5] = in vivo; details: dog; for Tmax / half-life / AUC(0-inf) / AUC(0-t) / CL/F / Cmax / Vd/F: beagle, po
Description: as §1

[6] = test system: cats with diabetes; assay: Owner and veterinarian assessments of vitality and weight in diabetic cats; assay type: in vivo, cat
Source text: Assessments by both owners and veterinarians of correlative measures of cat vitality were also collected over the course of various studies. Some of the relevant measures for this analysis are the subjective impressions of cat musculature, solicited from both owners and veterinarians, and owner views of cat overall activity as well as leaping ability. The rating instrument was a 4-point scale with 0=excellent, 1=good, 2=fair and 3=poor.

[7] = test system: feline SGLT1; assay: Inhibition of feline SGLT1

- inhibition of human SGLT2 (in words) [2]: highly effective and specific inhibitor
- solubility in ethanol, propylene glycol and PEGs relative to water [3]: more soluble
- solubility ([3]; water at 25° C.): ~500 µg/mL (≈ 1080 µM)
- Tmax [5]: ~0.5 h
- half-life [5]: 1.67 to 5.23 h
- AUC(0-inf) ([5]; 0.02 mg/kg): 45.3 ± 7.9 ng·h/mL
- AUC(0-t) ([5]; 0.02 mg/kg): 35.6 ± 5.2 ng·h/mL
- CL/F ([5]; 0.02 mg/kg): 7.6 mL/min/kg
- Cmax ([5]; 0.02 mg/kg): 16.3 ± 2.7 ng/mL
- Tmax ([5]; 0.02 mg/kg): 0.5 h
- Vd/F ([5]; 0.02 mg/kg): 1.08 ± 0.128 L/kg
- half-life ([5]; 0.02 mg/kg): 1.67 ± 0.26 h
- AUC(0-inf) ([5]; 0.067 mg/kg): 257 ± 62 ng·h/mL
- AUC(0-t) ([5]; 0.067 mg/kg): 240 ± 55 ng·h/mL
- CL/F ([5]; 0.067 mg/kg): 4.53 mL/min/kg
- Cmax ([5]; 0.067 mg/kg): 72.9 ± 11 ng/mL
- Tmax ([5]; 0.067 mg/kg): 0.5 h
- Vd/F ([5]; 0.067 mg/kg): 1.06 ± 0.067 L/kg
- half-life ([5]; 0.067 mg/kg): 2.81 ± 0.61 h
- AUC(0-inf) ([5]; 0.2 mg/kg): 769 ± 95 ng·h/mL
- AUC(0-t) ([5]; 0.2 mg/kg): 725 ± 80 ng·h/mL
- CL/F ([5]; 0.2 mg/kg): 4.42 mL/min/kg
- Cmax ([5]; 0.2 mg/kg): 233 ± 26 ng/mL
- Tmax ([5]; 0.2 mg/kg): 0.25 h
- Vd/F ([5]; 0.2 mg/kg): 1.12 ± 0.08 L/kg
- half-life ([5]; 0.2 mg/kg): 2.95 ± 0.28 h
- AUC(0-inf) ([5]; 0.67 mg/kg): 2670 ± 131 ng·h/mL
- AUC(0-t) ([5]; 0.67 mg/kg): 2600 ± 104 ng·h/mL
- CL/F ([5]; 0.67 mg/kg): 4.2 mL/min/kg
- Cmax ([5]; 0.67 mg/kg): 801 ± 46 ng/mL
- Tmax ([5]; 0.67 mg/kg): 0.5 h
- Vd/F ([5]; 0.67 mg/kg): 1.89 ± 0.398 L/kg
- half-life ([5]; 0.67 mg/kg): 5.23 ± 1.23 h
- AUC(0-inf) ([5]; 2 mg/kg): 8700 ± 1470 ng·h/mL
- AUC(0-t) ([5]; 2 mg/kg): 8600 ± 1520 ng·h/mL
- CL/F ([5]; 2 mg/kg): 3.95 mL/min/kg
- Cmax ([5]; 2 mg/kg): 2200 ± 539 ng/mL
- Tmax ([5]; 2 mg/kg): 0.5 h
- Vd/F ([5]; 2 mg/kg): 1.37 ± 0.601 L/kg
- half-life ([5]; 2 mg/kg): 3.89 ± 0.88 h
- dose proportionality of Cmax and AUC [5]: roughly dose proportional
SMILES: OC[C@H]1O[C@@H](c2ccc(Cl)c(Cc3ccc(OCCOC4CC4)cc3)c2)[C@H](O)[C@@H](O)[C@@H]1O [Bexagliflozin, (2S,3R,4R,5 S,6R)-2-(4-chloro-3-(4-(2-cyclopropoxyethoxy)benzyl)phenyl)-6-(hydroxymethyl)tetrahydro-2H-pyran-3,4,5-triol]
- inhibition of feline SGLT2 (in words) [1]: potent but less selective inhibitor
- 24 h urine Cl^− ([4]; dogs, 0.02 mg kg^−1 oral): 307.4 ± 87.7 mg
- 24 h urine K^+ ([4]; dogs, 0.02 mg kg^−1 oral): 426.2 ± 62.1 mg
- 24 h urine Na^+ ([4]; dogs, 0.02 mg kg^−1 oral): 178.7 ± 16.7 mg
- 24 h urine Volume ([4]; dogs, 0.02 mg kg^−1 oral): 118.0 ± 30.8 mL
- 24 h urine Cl^− ([4]; dogs, 0.067 mg kg^−1 oral): 403.4 ± 111.4 mg
- 24 h urine K^+ ([4]; dogs, 0.067 mg kg^−1 oral): 476.8 ± 96.5 mg
- 24 h urine Na^+ ([4]; dogs, 0.067 mg kg^−1 oral): 220.9 ± 53.9 mg
- 24 h urine Volume ([4]; dogs, 0.067 mg kg^−1 oral): 153.1 ± 44.5 mL
- 24 h urine Cl^− ([4]; dogs, 0.20 mg kg^−1 oral): 526.5 ± 127.8 mg
- 24 h urine K^+ ([4]; dogs, 0.20 mg kg^−1 oral): 558.8 ± 118.2 mg
- 24 h urine Na^+ ([4]; dogs, 0.20 mg kg^−1 oral): 275.7 ± 69.5 mg
- 24 h urine Volume ([4]; dogs, 0.20 mg kg^−1 oral): 214.1 ± 53.5 mL
- 24 h urine Cl^− ([4]; dogs, 0.67 mg kg^−1 oral): 573.9 ± 166.5 mg
- 24 h urine K^+ ([4]; dogs, 0.67 mg kg^−1 oral): 587.7 ± 113.5 mg
- 24 h urine Na^+ ([4]; dogs, 0.67 mg kg^−1 oral): 300.2 ± 66.4 mg
- 24 h urine Volume ([4]; dogs, 0.67 mg kg^−1 oral): 225.0 ± 66.9 mL
- 24 h urine Cl^− ([4]; dogs, 2.0 mg kg^−1 oral): 595.8 ± 80.6 mg
- 24 h urine K^+ ([4]; dogs, 2.0 mg kg^−1 oral): 599.7 ± 93.5 mg
- 24 h urine Na^+ ([4]; dogs, 2.0 mg kg^−1 oral): 313.1 ± 35.1 mg
- 24 h urine Volume ([4]; dogs, 2.0 mg kg^−1 oral): 247.7 ± 35.2 mL
- % of the maximum pharmacological effect ([4]; dogs, approximately 1 mg kg^−1 once daily): approximately 90%
- maximum urinary glucose excretion per body mass ([4]; dogs, average mass 5.84 kg): 4.23 g glucose per kg of body mass
- % of the maximum pharmacodynamic effect ([4]; dogs, dose 50 μg kg^−1, based on results in beagle dogs): 30%
- % of the maximum pharmacodynamic effect ([4]; dogs, dose 100 μg kg^−1): 46%
- % of the maximum pharmacodynamic effect ([4]; dogs, dose 200 μg kg^−1): 63%
- % of the maximum pharmacodynamic effect ([4]; dogs, dose 400 μg kg^−1): 77%
- % of the maximum pharmacodynamic effect ([4]; dogs, dose 800 μg kg^−1): 87%
- % of the maximum pharmacodynamic effect ([4]; dogs, dose 1600 μg kg^−1): 93%
- % of the maximum pharmacodynamic effect ([4]; dogs, dose 3200 μg kg^−1): 96%
- % of the maximum pharmacodynamic effect ([4]; dogs, eighth value, no matching dose printed): 98%
- Emax for urinary glucose excretion ([4]; dogs, simple logistic model fit): 24.69 g of glucose in 24 h
- ED50 for 24 h urinary glucose excretion ([4]; dogs, simple logistic model fit, doses 0.02 to 2.0 mg kg^−1): 0.116 mg/kg
- potency by ED50 in dogs relative to cats ([4]; urinary glucose excretion ED50, dogs vs cats): approximately 4 times
- owner assessment of activity ([6]; 4-point scale): more active
- owner assessment of leaping ability ([6]; 4-point scale): better leaping ability
- veterinarian and owner assessments of musculature ([6]; 4-point scale, statistically significant): musculature of study cats had improved
- mean cat weight ([6]; by visit, highly significant): mean cat weight increased
- potency for feline SGLT1 (in words) [7]: high potency
